{"source": "ChEMBL document CHEMBL4825697", "about": "“Optimization and SAR research at the piperazine and phenyl rings of JNJ4796 as new anti-influenza A virus agents, part 1” (Eur J Med Chem, 2021)", "key": {"[1]": {"assay": "Selectivity index, ratio of CC50 for cytotoxicity against dog MDCK cells to IC50 for antiviral activity against Oseltamivir resistant Influenza A virus (A/Tianjin-Jinnan/15/2009(H1N1)) infected in dog MDCK cells", "type": "toxicity, cell-based", "details": "read-out: Selectivity Index"}, "Influenza A virus": {"tested_on": "Influenza A virus", "assay": "Antiviral activity against Oseltamivir resistant Influenza A virus (A/Tianjin-Jinnan/15/2009(H1N1) infected in dog MDCK cells assessed as inhibition of surface glycoprotein hemagglutinin", "type": "functional, organism-based"}}}
{"smiles": "CC(=O)Nc1ccc2oc(-c3ccnc(C(=O)N4CCN([C@@H](c5ccccc5)c5nnn(C)n5)CC4)c3)nc2c1", "values": [{"measurement": "selectivity ratio", "setting": "[1]", "value": "> 23"}, {"measurement": "IC50", "setting": "Influenza A virus", "value": 8.5, "unit": "µM"}]}
{"smiles": "CC(=O)Nc1ccc2oc(-c3ccnc(C(=O)N4CCN([C@H](c5ccccc5)c5nnn(C)n5)CC4)c3)nc2c1", "values": [{"measurement": "selectivity ratio", "setting": "[1]", "value": 2870}, {"measurement": "IC50", "setting": "Influenza A virus", "value": 0.05, "unit": "µM"}]}
{"smiles": "CC(=O)Nc1ccc2oc(-c3ccnc(C(=O)N4CCN([C@H](c5ccc(F)cc5)c5nnn(C)n5)CC4)c3)nc2c1", "values": [{"measurement": "selectivity ratio", "setting": "[1]", "value": "> 3330"}, {"measurement": "IC50", "setting": "Influenza A virus", "value": 0.06, "unit": "µM"}]}
{"smiles": "CC(=O)Nc1ccc2oc(-c3ccnc(C(=O)N4CCN([C@@H](c5ccc(F)cc5)c5nnn(C)n5)CC4)c3)nc2c1", "values": [{"measurement": "selectivity ratio", "setting": "[1]", "value": "> 30"}, {"measurement": "IC50", "setting": "Influenza A virus", "value": 6.65, "unit": "µM"}]}
{"smiles": "CCOC(=O)C1=C[C@@H](OC(CC)CC)[C@H](NC(C)=O)[C@@H](N)C1", "note": "[OSELTAMIVIR]", "values": [{"measurement": "selectivity ratio", "setting": "[1]", "value": "> 1"}, {"measurement": "IC50", "setting": "Influenza A virus", "value": 180, "unit": "µM"}]}
{"smiles": "NC(=O)c1ncn([C@@H]2O[C@H](CO)[C@@H](O)[C@H]2O)n1", "note": "[RIBAVIRIN]", "values": [{"measurement": "selectivity ratio", "setting": "[1]", "value": "> 46"}, {"measurement": "IC50", "setting": "Influenza A virus", "value": 4.28, "unit": "µM"}]}
